The source of these data is patent publication US9969741B2, “Pyrazolotriazines as inhibitors of nucleases” (MASARYKOVA UNIVERZITA, priority 2014, dated 2018).

The structures appear in SMILES notation.

This test concerns the target T1, EXO1 (Homo sapiens, UniProt Q9UQ84).
T1 construct: made in house; host or cells: Escherichia coli BL21 (RIPL)
T1 sequence (Q9UQ84 1-846): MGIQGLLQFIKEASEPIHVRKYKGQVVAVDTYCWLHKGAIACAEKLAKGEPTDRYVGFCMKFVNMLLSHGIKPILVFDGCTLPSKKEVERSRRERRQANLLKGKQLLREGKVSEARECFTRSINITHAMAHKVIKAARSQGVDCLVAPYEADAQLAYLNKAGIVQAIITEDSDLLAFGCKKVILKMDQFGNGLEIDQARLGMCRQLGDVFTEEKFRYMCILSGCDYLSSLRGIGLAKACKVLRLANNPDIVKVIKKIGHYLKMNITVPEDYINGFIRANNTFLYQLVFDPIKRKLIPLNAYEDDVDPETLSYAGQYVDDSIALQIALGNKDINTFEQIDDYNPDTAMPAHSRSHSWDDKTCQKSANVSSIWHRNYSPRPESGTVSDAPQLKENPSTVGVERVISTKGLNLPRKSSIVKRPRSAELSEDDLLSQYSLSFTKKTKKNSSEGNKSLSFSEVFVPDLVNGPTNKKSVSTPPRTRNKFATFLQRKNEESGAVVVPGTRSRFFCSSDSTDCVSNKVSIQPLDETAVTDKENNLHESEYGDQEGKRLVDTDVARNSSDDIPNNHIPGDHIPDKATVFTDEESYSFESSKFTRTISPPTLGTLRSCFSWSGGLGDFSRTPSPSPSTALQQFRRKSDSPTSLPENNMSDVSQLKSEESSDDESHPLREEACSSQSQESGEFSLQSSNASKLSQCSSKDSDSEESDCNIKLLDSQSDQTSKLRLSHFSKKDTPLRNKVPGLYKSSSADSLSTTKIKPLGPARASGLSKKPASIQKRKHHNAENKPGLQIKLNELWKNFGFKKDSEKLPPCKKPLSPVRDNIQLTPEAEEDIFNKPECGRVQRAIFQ
Briefly: Nuclease inhibition assay, EXO1 (3′ OH fluorescent DNA substrate, gel readout). The conditions noted are these: 5 nM enzyme, 5 nM 3′ OH substrate, 15 min at 30° C. Format: biochemical. The source says:
In vitro assays were used for the determination of compound's IC50 values for inhibition of individual nucleases, i.e., MUS81/EME1, FEN1, EXO1, and MRE11. To generate IC50 values, concentration of compound was plotted against relative nuclease activity (in %). The dose-response curves were generated from inhibition data, from 5 point serial dilutions of inhibitory compounds, each in triplicate and fitted to a standard sigmoid curve. IC50 values were derived by standard nonlinear regression analysis.
All tested compounds were diluted in 100% DMSO (dimethylsulfoxide) to prepare working stocks with different concentrations. To keep the DMSO concentration constant in every reaction, always 0.5 μl of the compound stock was added to the reaction buffer. The reaction buffer differs depending on the enzyme tested. Also concentration of the compounds in the reaction depends on the particular enzyme, since the inhibitory effect of the compounds vary between the enzymes. Nevertheless, always doubling dilutions in the range 200-0.8 μM was used. The compound was added as the first component in the reaction buffer, followed by the enzyme addition. […]
For this experiment we prepared short fluorescently labeled oligonucleotide-based DNA substrates with specific structures reflecting the biochemical activities of tested individual nucleases (Table 1). […] For visualization, each substrate was labeled by fluorescent dye (fluorescein), which can be detected in the gel using appropriate imaging system (FLA-9000, Fuji) with filters for particular wavelengths (excitation: 485 nm, emission: 535 nm).
Nuclease assays were performed in reaction buffer specific for particular enzyme: MUS81/EME1 (50 mM Tris pH=7.5, 5 mM MgCl2, 1 mM DTT a 100 μg/ml BSA), MRE11 (30 mM Bis-Tris pH=7.0, 50 μg/ml BSA, 1 mM DTT a 250 μM MnCl2), EXO1 and FEN1 (50 mM Tris pH=7.5, 1 mM MgCl2, 1 mM DTT a 100 μg/ml BSA). […] Fluorescently labeled DNA was detected by FLA-9000 scanner (Fuji) and the result was evaluated using Multi-Gauge V3.2 software (Fuji). […]
`CCc1nn2c(N)c(-c3nc4ccccc4[nH]3)nnc2c1-c1ccc(F)cc1` [Preparative Example 5A]: the IC50 is over 50 µM.

`Nc1c(-c2nc3ccccc3[nH]2)nnc2cc(-c3ccccc3)nn12` [Preparative Example 5C] displayed an IC50 of over 50 µM.

Compound `Nc1c(-c2nc3ccccc3[nH]2)nnc2cc(-c3cccc4ccccc34)nn12` [Preparative Example 5K] showed an IC50 of over 50 µM.

What is called IC50 is the concentration that inhibits the measured activity by half. Low readings indicate greater potency in that assay, high ones weaker potency in that assay.
